Assay results published in ChEMBL document CHEMBL5537201, “Discovery of Unique Bis-Substituted Aromatic Amide Derivatives as Novel Highly Potent Antibiotics for Combating Methicillin-Resistant Staphylococcus aureus (MRSA)” (J Med Chem, 2024).
≈ marks a conversion by molar mass, not a printed value. Calls of active or inactive are those of the source. No cut-off for these calls is given here.

Assays:
Staphylococcus aureus [1] = assay: Antimicrobial activity against methicillin resistant Staphylococcus aureus clinical isolate MRS121 assessed as reduction in bacterial growth incubated for 24 hrs by two-fold broth dilution method; assay type: functional
Staphylococcus aureus [2] = assay: Bactericidal activity against methicillin-resistant Staphylococcus aureus clinical isolate MRS97 at 5 ug/ml measured upto 150 mins; assay type: functional, organism-based; settings: dose 5.0 µg/ml
Staphylococcus aureus [3] = assay: Antimicrobial activity against methicillin resistant Staphylococcus aureus clinical isolate MRS1 assessed as reduction in bacterial growth incubated for 24 hrs by two-fold broth dilution method; assay type: functional
Staphylococcus aureus [4] = assay: Antimicrobial activity against methicillin resistant Staphylococcus aureus clinical isolate MRS97 assessed as reduction in bacterial growth incubated for 24 hrs by two-fold broth dilution method; assay type: functional
Staphylococcus aureus [5] = assay: Antimicrobial activity against methicillin resistant Staphylococcus aureus clinical isolate MRS108 assessed as reduction in bacterial growth incubated for 24 hrs by two-fold broth dilution method; assay type: functional
Staphylococcus aureus [6] = assay: Antimicrobial activity against methicillin resistant Staphylococcus aureus clinical isolate MRS84 assessed as reduction in bacterial growth incubated for 24 hrs by two-fold broth dilution method; assay type: functional
Staphylococcus hominis [7] = assay: Antimicrobial activity against methicillin-resistant Staphylococcus hominis assessed as reduction in bacterial growth incubated for 24 hrs by two-fold broth dilution method; assay type: functional
Staphylococcus aureus [8] = assay: Antimicrobial activity against Staphylococcus aureus ATCC6538 assessed as reduction in bacterial growth incubated for 24 hrs by two-fold broth dilution method; assay type: functional
Staphylococcus aureus [9] = assay: Antimicrobial activity against methicillin resistant Staphylococcus aureus clinical isolate MRS152 assessed as reduction in bacterial growth incubated for 24 hrs by two-fold broth dilution method; assay type: functional
Staphylococcus aureus [10] = assay: Antimicrobial activity against methicillin resistant Staphylococcus aureus clinical isolate MRS23 assessed as reduction in bacterial growth incubated for 24 hrs by two-fold broth dilution method; assay type: functional
Staphylococcus aureus [11] = assay: Antimicrobial activity against methicillin resistant Staphylococcus aureus clinical isolate MRS70 assessed as reduction in bacterial growth incubated for 24 hrs by two-fold broth dilution method; assay type: functional
Staphylococcus aureus [12] = assay: Bactericidal activity against methicillin-resistant Staphylococcus aureus clinical isolate MRS153 at 5 ug/ml measured upto 150 mins; assay type: functional, organism-based; settings: dose 5.0 µg/ml
Staphylococcus aureus [13] = assay: Antimicrobial activity against methicillin resistant Staphylococcus aureus clinical isolate MRS273 assessed as reduction in bacterial growth incubated for 24 hrs by two-fold broth dilution method; assay type: functional
Staphylococcus aureus [14] = assay: Bactericidal activity against methicillin-resistant Staphylococcus aureus clinical isolate MRS1 at 5 ug/ml measured upto 150 mins; assay type: functional, organism-based; settings: dose 5.0 µg/ml
Streptomyces albus = assay: Antimicrobial activity against Streptomyces albus SHBC D11158 assessed as reduction in bacterial growth incubated for 24 hrs by two-fold broth dilution method; assay type: functional
Staphylococcus aureus [15] = assay: Antimicrobial activity against methicillin resistant Staphylococcus aureus clinical isolate MRS200 assessed as reduction in bacterial growth incubated for 24 hrs by two-fold broth dilution method; assay type: functional
Staphylococcus aureus [16] = assay: Antimicrobial activity against methicillin resistant Staphylococcus aureus clinical isolate MRS153 assessed as reduction in bacterial growth incubated for 24 hrs by two-fold broth dilution method; assay type: functional
Staphylococcus aureus [17] = assay: Antimicrobial activity against methicillin resistant Staphylococcus aureus clinical isolate MRS207 assessed as reduction in bacterial growth incubated for 24 hrs by two-fold broth dilution method; assay type: functional
Staphylococcus hominis [18] = assay: Bactericidal activity against multidrug-resistant Staphylococcus hominis at 5 ug/ml measured upto 150 mins; assay type: functional, organism-based; settings: dose 5.0 µg/ml
Staphylococcus aureus [19] = assay: Bactericidal activity against Staphylococcus aureus ATCC6538 at 5 ug/ml measured upto 150 mins; assay type: functional, organism-based; settings: dose 5.0 µg/ml
Cell membrane [20] = assay: Disruption of cell membrane integrity in Staphylococcus aureus ATCC6538 assessed as increase in fluorescence intensity measured upto 36 mins ethidium bromide uptake assay; assay type: cell membranes
Cell membrane [21] = assay: Disruption of cell membrane integrity in methicillin resistant Staphylococcus aureus clinical isolate MRS153 assessed as increase in fluorescence intensity measured upto 36 mins ethidium bromide uptake assay; assay type: cell membranes
Staphylococcus aureus [22] = assay: Antimicrobial activity against vancomycin-resistant Staphylococcus aureus assessed as reduction in bacterial growth incubated for 24 hrs by two-fold broth dilution method; assay type: functional
Staphylococcus aureus [23] = assay: Induction of drug resistance in Staphylococcus aureus ATCC6538 assessed as fold change in MIC measured after 10 passages; assay type: functional
Staphylococcus aureus [24] = assay: Bactericidal activity against norfloxacin-resistant Staphylococcus aureus ATCC6538 at 5 ug/ml measured upto 150 mins; assay type: functional, organism-based; settings: dose 5.0 µg/ml
[25] = Cytotoxicity against human HaCaT cells assessed as reduction in cell viability measured after 24 hrs by CCK-8 method; assay type: toxicity, cell-based
Staphylococcus aureus [26] = assay: Antimicrobial activity against Staphylococcus aureus N315 assessed as reduction in bacterial growth incubated for 24 hrs by two-fold broth dilution method; assay type: functional
A549 = assay: Cytotoxicity against human A549 cells assessed as reduction in cell viability measured after 24 hrs by CCK-8 method; assay type: functional, cell-based; settings: A549, 24 h
Staphylococcus aureus [27] = assay: Bactericidal activity against Staphylococcus aureus ATCC6538 assessed as reduction in survival rate at 5 to 10 times MIC measured after 30 to 120 mins by colony counting method relative to control; assay type: functional; settings: time 30-120 min
HeLa = assay: Cytotoxicity against human HeLa cells assessed as reduction in cell viability measured after 24 hrs by CCK-8 method; assay type: functional, cell-based
[28] = Selectivity index, ratio of IC50 for African green monkey Vero E6 cells to MIC for Staphylococcus aureus ATCC6538; assay type: toxicity; settings: read-out: Selectivity Index
[29] = Selectivity index, ratio of HC50 for rabbit Red blood cell to MIC for Staphylococcus aureus ATCC6538; assay type: toxicity; settings: red blood cells (erythrocytes), read-out: Selectivity Index
[30] = Cytotoxicity against HEK293 cells assessed as reduction in cell viability measured after 24 hrs by CCK-8 method; assay type: toxicity, cell-based; settings: human
[31] = Hemolytic activity in rabbit Red blood cell assessed as hemolysis incubated for 1 hr by two-fold microdilution method; assay type: toxicity, cell-based, Oryctolagus cuniculus, Erythrocyte; settings: red blood cells (erythrocytes)
Staphylococcus aureus [32] = assay: Induction of drug resistance in Staphylococcus aureus ATCC6538 assessed as change in MIC measured after 10 passages; assay type: functional
[33] = Cytotoxicity against African green monkey Vero E6 cells assessed as reduction in cell viability measured after 24 hrs by CCK-8 method; assay type: toxicity, cell-based, Chlorocebus sabaeus, Vero C1008
Staphylococcus aureus [34] = assay: Bactericidal activity against Staphylococcus aureus ATCC6538 assessed as reduction in survival rate at 5 to 10 times MIC measured within 1 hr by colony counting method; assay type: functional, organism-based

## COc1cccc(OC)c1C(=O)N[C@@H]1C(=O)N2[C@@H]1SC(C)(C)[C@@H]2C(=O)O [METHICILLIN]
Staphylococcus aureus [1]
  MIC: 8 µg/mL (≈ 21 µM)
Staphylococcus aureus [2]
  Activity: inactive
Staphylococcus aureus [3]
  MIC: 16 µg/mL (≈ 42.1 µM)
Staphylococcus aureus [4]
  MIC: 8 µg/mL (≈ 21 µM)
Staphylococcus aureus [5]
  MIC: 16 µg/mL (≈ 42.1 µM)
Staphylococcus aureus [6]
  MIC: 16 µg/mL (≈ 42.1 µM)
Staphylococcus hominis [7]
  MIC: 2 µg/mL (≈ 5.26 µM)
Staphylococcus aureus [8]
  MIC: 1 µg/mL (≈ 2.63 µM)
Staphylococcus aureus [9]
  MIC: 8 µg/mL (≈ 21 µM)
Staphylococcus aureus [10]
  MIC: 8 µg/mL (≈ 21 µM)
Staphylococcus aureus [11]
  MIC: 16 µg/mL (≈ 42.1 µM)
Staphylococcus aureus [12]
  Activity: inactive
Staphylococcus aureus [13]
  MIC: 16 µg/mL (≈ 42.1 µM)
Staphylococcus aureus [14]
  Activity: inactive
Streptomyces albus
  MIC: 4 µg/mL (≈ 10.5 µM)
Staphylococcus aureus [15]
  MIC: > 16 µg/mL
Staphylococcus aureus [16]
  MIC: > 16 µg/mL
Staphylococcus aureus [17]
  MIC: 16 µg/mL (≈ 42.1 µM)

## CN[C@H](CC(C)C)C(=O)N[C@H]1C(=O)N[C@@H](CC(N)=O)C(=O)N[C@H]2C(=O)N[C@H]3C(=O)N[C@H](C(=O)N[C@H](C(=O)O)c4cc(O)cc(O)c4-c4cc3ccc4O)[C@H](O)c3ccc(c(Cl)c3)Oc3cc2cc(c3O[C@@H]2O[C@H](CO)[C@@H](O)[C@H](O)[C@H]2O[C@H]2C[C@](C)(N)[C@H](O)[C@H](C)O2)Oc2ccc(cc2Cl)[C@H]1O [VANCOMYCIN]
Staphylococcus hominis [18]
  Activity: inactive
Staphylococcus hominis [7]
  MIC: 1 µg/mL (≈ 0.69 µM)
Staphylococcus aureus [19]
  Activity: inactive
Cell membrane [20]
  Activity: inactive
Cell membrane [21]
  Activity: inactive
Streptomyces albus
  MIC: 2 µg/mL (≈ 1.38 µM)
Staphylococcus aureus [22]
  MIC: ≥ 8 µg/mL

## CCn1cc(C(=O)O)c(=O)c2cc(F)c(N3CCNCC3)cc21
Staphylococcus aureus [23]
  fold change (FC): 256
Staphylococcus aureus [24]
  Activity: inactive
Staphylococcus aureus [19]
  Activity: Active

## O=C(CCC(F)(F)F)N(Cc1cc2ccccc2s1)c1cc(-c2ccco2)ccc1O
Staphylococcus aureus [1]
  MIC: 6 µg/mL (≈ 13.5 µM)
[25]
  IC50 at 24 h: > 25 µg/mL
Staphylococcus aureus [3]
  MIC: 6 µg/mL (≈ 13.5 µM)
Staphylococcus aureus [4]
  MIC: 3 µg/mL (≈ 6.73 µM)
Staphylococcus aureus [5]
  MIC: 6 µg/mL (≈ 13.5 µM)
Staphylococcus aureus [6]
  MIC: 3 µg/mL (≈ 6.73 µM)
Staphylococcus aureus [26]
  MIC: 1 µg/mL (≈ 2.24 µM)
A549
  IC50: > 25 µg/mL
Staphylococcus hominis [7]
  MIC: 16 µg/mL (≈ 35.9 µM)
Staphylococcus aureus [8]
  MIC: 2 µg/mL (≈ 4.49 µM)
Staphylococcus aureus [9]
  MIC: 6 µg/mL (≈ 13.5 µM)
Staphylococcus aureus [10]
  MIC: 2 µg/mL (≈ 4.49 µM)
Staphylococcus aureus [11]
  MIC: 6 µg/mL (≈ 13.5 µM)
Staphylococcus aureus [13]
  MIC: 3 µg/mL (≈ 6.73 µM)
Staphylococcus aureus [27]
  Survival: <1%
Streptomyces albus
  MIC: 16 µg/mL (≈ 35.9 µM)
HeLa
  IC50: > 25 µg/mL
[28]
  selectivity ratio: > 25
[29]
  selectivity ratio: > 1000
[30]
  IC50 at 24 h: 15.4 µg/mL (≈ 34.6 µM)
[31]
  HC50 at 1 h: 1640 µg/mL
Staphylococcus aureus [15]
  MIC: 6 µg/mL (≈ 13.5 µM)
Staphylococcus aureus [16]
  MIC: 2 µg/mL (≈ 4.49 µM)
Staphylococcus aureus [32]
  Activity: inactive
[33]
  IC50 at 24 h: > 25 µg/mL
Staphylococcus aureus [17]
  MIC: 8 µg/mL (≈ 18 µM)

## O=C(CCC(F)(F)F)N(Cc1cc2ccccc2s1)c1cc(-c2cccc(C(F)(F)F)c2)ccc1O
Staphylococcus aureus [1]
  MIC: 3 µg/mL (≈ 5.73 µM)
[25]
  IC50 at 24 h: 13 µg/mL (≈ 24.8 µM)
Staphylococcus aureus [3]
  MIC: 3 µg/mL (≈ 5.73 µM)
Staphylococcus aureus [4]
  MIC: 3 µg/mL (≈ 5.73 µM)
Staphylococcus aureus [5]
  MIC: 6 µg/mL (≈ 11.5 µM)
Staphylococcus aureus [6]
  MIC: 3 µg/mL (≈ 5.73 µM)
Staphylococcus aureus [26]
  MIC: 2 µg/mL (≈ 3.82 µM)
A549
  IC50: 12.5 µg/mL (≈ 23.9 µM)
Staphylococcus hominis [7]
  MIC: 2 µg/mL (≈ 3.82 µM)
Staphylococcus aureus [8]
  MIC: 1 µg/mL (≈ 1.91 µM)
Staphylococcus aureus [9]
  MIC: > 16 µg/mL
Staphylococcus aureus [10]
  MIC: 6 µg/mL (≈ 11.5 µM)
Staphylococcus aureus [11]
  MIC: 6 µg/mL (≈ 11.5 µM)
Staphylococcus aureus [13]
  MIC: 3 µg/mL (≈ 5.73 µM)
Staphylococcus aureus [34]
  Activity: Active
Streptomyces albus
  MIC: 2 µg/mL (≈ 3.82 µM)
HeLa
  IC50: 13.4 µg/mL (≈ 25.5 µM)
[28]
  selectivity ratio: 20
[29]
  selectivity ratio: > 1000
[30]
  IC50 at 24 h: 12.2 µg/mL (≈ 23.4 µM)
[31]
  HC50 at 1 h: 3280 µg/mL
Staphylococcus aureus [15]
  MIC: 6 µg/mL (≈ 11.5 µM)
Staphylococcus aureus [16]
  MIC: 6 µg/mL (≈ 11.5 µM)
Staphylococcus aureus [32]
  Activity: inactive
[33]
  IC50 at 24 h: 20.3 µg/mL (≈ 38.8 µM)
Staphylococcus aureus [17]
  MIC: 6 µg/mL (≈ 11.5 µM)
